Reference: patent publication US4406883A, “Controlled release suppositories consisting essentially of a linear polymer particularly, polyvinyl pyrrolidones” (Merrell Dow Pharmaceuticals Inc., priority 1981, dated 1983)
Where a name gives a salt, the structure may show the parent alone. Read-outs that look alike come from different tables or passages of the source.

Experiments:
[1] = In vitro trial: drug release from extruded suppositories in 150 ml water at 37° C.; format: physicochemical; conditions: phenylephrine hydrochloride vs lignocaine hydrochloride, alone and together (FIGS. 6-8)
Description: Mixes for the in vivo and the in vitro trails were made by dissolving the required quantities of drug in water which was then added to the polymer and thoroughly mixed using a spatula. […] The resulting damp, spongy particles were squeezed together by hand to form a dough-like mixture. The mixes were extruded through a nozzle of a 50 ml plastic syringe to form a long rod (9 mm diameter). Immediately after, suppositories were made by cutting the rod into 3 cm length and were stored in an air-tight container prior to use.
Drug release rates were studied in four ways:
(i) release from suppositories containing 20 mg phenylephrine hydrochloride only (in duplicate).
(iii) release from suppositories containing both drugs in the above amounts (in triplicate).
The concentration of drug in the aliquot was immediately determined spectrophotometrically (q.v.) after which the aliquot sample was returned to the solution. […]
Analytical background effects (due to the polymer) were measured by repeating the spectrophotometric procedure using a suppository containing no drug. […]
The absorbences of the samples taken during the in vitro trial were measured on the spectrophotometer and the concentrations of the dissolved drugs determined by reference to the calibration curves.
Drug release rates were measured in the in vitro trials for suppositories containing each drug alone and both drugs together. […]

[2] = male beagle
Description: Four smaller pieces were randomly cut from the remainder and placed into weighed vials. Distilled water (10 ml) was added to each vial and the contents were allowed to dissolve overnight. Triplicate aliquots (0.1 ml) were removed for the determination of radioactivity as for plasma.
The evacuated suppository was separated from the faecal pellet and weighed. The sample was then homogenised with a known quantity of purified sand (sand to sample ratio, 2:1).
Four pieces of the sand/suppository mixture were placed in weighed vials. Distilled water (4 ml) was added to each vial and the contents were allowed to dissolve overnight. Unisolve 1 (10 ml) was added and the resulting translucent gel was mixed by vigorous shaking. The samples were assayed for radioactivity.
They were then re-weighed and the moisture content of the evacuated suppository was determined.

[3] = male beagle, rectal, dose 38.93 μCi

Molecule: CCN(CC)CC(=O)Nc1c(C)cccc1C [lignocaine hydrochloride]
- proportion of drug released, comparison of drugs [1]: approximately the same

Molecule: [^14 C]-lignocaine hydrochloride
- % total administered dose in evacuated suppository [2]: 27.58%
- radioactive dose remaining in evacuated suppository ([2]; dose 38.93 μCi): 10.74 μCi
- time of maximum plasma concentration of radioactivity (dog, rectal): 8 h
- maximum plasma concentration of radioactivity (dog, rectal, at 8 h): 0.00295 %/ml of the administered radioactive dose
- % total administered dose, liver (male beagle, 48 h): 0.36%
- % total administered dose, rectal contents (male beagle, 48 h): 0.086%
- % total administered dose, rectum (male beagle, 48 h): 0.026%
- cumulative % total administered dose, through liver (male beagle, 48 h): 0.375%
- cumulative % total administered dose, through rectal contents (male beagle, 48 h): 0.487%
- cumulative % total administered dose, through rectum (male beagle, 48 h): 0.401%
- cumulative % total administered dose, through urine and faeces (male beagle, 48 h): 48.687%
- total radioactivity recovered, bile (male beagle, 48 h): 0.006 μCi
- total radioactivity recovered, liver (male beagle, 48 h): 0.14 μCi
- total radioactivity recovered, rectal contents (male beagle, 48 h): 0.03 μCi
- total radioactivity recovered, rectum (male beagle, 48 h): 0.01 μCi
- total radioactivity recovered, urine and faeces (male beagle, 48 h): 18.77 μCi
- concentration of radioactivity in plasma (male beagle, rectal, 0 h): 0 % administered radioactive dos
- radioactive drug equivalents in plasma (male beagle, rectal, 0 h): 0 μg equivalents/ml plasma
- concentration of radioactivity in plasma (male beagle, rectal, 0.5 h): 0.00081 % administered radioactive dos
- radioactive drug equivalents in plasma (male beagle, rectal, 0.5 h): 0.75 μg equivalents/ml plasma
- concentration of radioactivity in plasma (male beagle, rectal, 1 h): 0.0014 % administered radioactive dos
- radioactive drug equivalents in plasma (male beagle, rectal, 1 h): 1.33 μg equivalents/ml plasma
- concentration of radioactivity in plasma (male beagle, rectal, 2 h): 0.0022 % administered radioactive dos
- radioactive drug equivalents in plasma (male beagle, rectal, 2 h): 2.08 μg equivalents/ml plasma
- concentration of radioactivity in plasma (male beagle, rectal, 4 h): 0.00291 % administered radioactive dos
- radioactive drug equivalents in plasma (male beagle, rectal, 4 h): 2.72 μg equivalents/ml plasma
- concentration of radioactivity in plasma (male beagle, rectal, 8 h): 0.00295 % administered radioactive dos
- radioactive drug equivalents in plasma (male beagle, rectal, 8 h): 2.75 μg equivalents/ml plasma
- concentration of radioactivity in plasma (male beagle, rectal, 24 h): 0.00267 % administered radioactive dos
- radioactive drug equivalents in plasma (male beagle, rectal, 24 h): 2.49 μg equivalents/ml plasma
- concentration of radioactivity in plasma (male beagle, rectal, 48 h): 0.00062 % administered radioactive dos
- radioactive drug equivalents in plasma (male beagle, rectal, 48 h): 0.58 μg equivalents/ml plasma
- total radioactivity excreted, total (male beagle, rectal, 48 h, dose 38.93 μCi): 18.77 μCi
- total radioactivity excreted, 0-24 h urine [3]: 13.45 μCi
- total radioactivity excreted, 24-48 h urine [3]: 2.19 μCi
- total radioactivity excreted, total faeces [3]: 3.13 μCi

Molecule: CNC[C@H](O)c1cccc(O)c1 [phenylephrine hydrochloride]
- proportion of drug released, comparison of drugs [1]: approximately the same
